Settings: 323.16 K, Liquid, Vibrating tube method

CCCCCC(=O)OCC(COC(=O)CCCCC)(COC(=O)CCCCC)COC(=O)CCCCC [pentaerythritol tetrahexanoate]
Settings | mass density [kg/m3]
24638 kPa | 989
24665 kPa | 988.9
24693 kPa | 988.9
24716 kPa | 988.9
24744 kPa | 989
24772 kPa | 989
24795 kPa | 988.9
24822 kPa | 989
24849 kPa | 989
24876 kPa | 989.1
24905 kPa | 989
24928 kPa | 989.2
24956 kPa | 989.1
24984 kPa | 989.2
25012 kPa | 989.1
25040 kPa | 989.2
25063 kPa | 989.1
25092 kPa | 989.2
25120 kPa | 989.4
25148 kPa | 989.3
25172 kPa | 989.1
25200 kPa | 989.2
25228 kPa | 989.4
25257 kPa | 989.3
25286 kPa | 989.2
25314 kPa | 989.3
25339 kPa | 989.4
25368 kPa | 989.4
25397 kPa | 989.3
25422 kPa | 989.4
25450 kPa | 989.4
25480 kPa | 989.3
25509 kPa | 989.4
26056 kPa | 989.7
26083 kPa | 989.7
26111 kPa | 989.8
26138 kPa | 989.8
26161 kPa | 989.8
26189 kPa | 989.8
26217 kPa | 989.8
26244 kPa | 989.9
26266 kPa | 989.9
26294 kPa | 989.9
26321 kPa | 989.9
26349 kPa | 989.9
26377 kPa | 989.9
26405 kPa | 990
26428 kPa | 990
26456 kPa | 990
26485 kPa | 990
26516 kPa | 990
26539 kPa | 990.1
26567 kPa | 990.1
26596 kPa | 990.2
26620 kPa | 990.1
26648 kPa | 990.1
26677 kPa | 990.1
26706 kPa | 990.2
26734 kPa | 990.2
27187 kPa | 990.3
27218 kPa | 990.5
27243 kPa | 990.5
27273 kPa | 990.4
27304 kPa | 990.6
27334 kPa | 990.6
27359 kPa | 990.6
27390 kPa | 990.6
27420 kPa | 990.5
27451 kPa | 990.6
27481 kPa | 990.7
27507 kPa | 990.6
27538 kPa | 990.7
27569 kPa | 990.7
27601 kPa | 990.7
27627 kPa | 990.7
27659 kPa | 990.8
27690 kPa | 990.8
27722 kPa | 990.8
27748 kPa | 990.8
27781 kPa | 990.7
27814 kPa | 990.9
27846 kPa | 990.8
27871 kPa | 990.8
27898 kPa | 991
27926 kPa | 990.9
27954 kPa | 990.9
27978 kPa | 991
28006 kPa | 990.8
28034 kPa | 990.9
28308 kPa | 991.1
28332 kPa | 991.2
28361 kPa | 991.2
28389 kPa | 991.2
28418 kPa | 991.2
28471 kPa | 991.3
28499 kPa | 991.1
28529 kPa | 991.2
28553 kPa | 991.1
28582 kPa | 991.2
28611 kPa | 991.3
28640 kPa | 991.4
29189 kPa | 991.7
29221 kPa | 991.7
29253 kPa | 991.7
29279 kPa | 991.7
29311 kPa | 991.8
29343 kPa | 991.8
29373 kPa | 991.8
29395 kPa | 991.8
29423 kPa | 991.8
29446 kPa | 991.7
29473 kPa | 991.8
29500 kPa | 991.8
29527 kPa | 991.9
29603 kPa | 991.9
29630 kPa | 991.8
29657 kPa | 992.1
29680 kPa | 992
29707 kPa | 992
29734 kPa | 992
29999 kPa | 992.1
30027 kPa | 992.1
30055 kPa | 992.3
30079 kPa | 992.1
30107 kPa | 992.1
30135 kPa | 992.2
30159 kPa | 992.4
30188 kPa | 992.3
30217 kPa | 992.3
30245 kPa | 992.2
30273 kPa | 992.4
30301 kPa | 992.4
30326 kPa | 992.2
30354 kPa | 992.4
30383 kPa | 992.3
30407 kPa | 992.4
30436 kPa | 992.4
30579 kPa | 992.4
30610 kPa | 992.4
30641 kPa | 992.5
30672 kPa | 992.6
30697 kPa | 992.5
30725 kPa | 992.6
30749 kPa | 992.7
30774 kPa | 992.6
